# According to ChEMBL document CHEMBL6103648, “AI-Driven Discovery of Highly Specific and Efficacious hCES2A Inhibitors for Ameliorating Irinotecan-Triggered Gut Toxicity” (J Med Chem, 2025):
# Activity calls are given as the source filed them. The calls are words filed in the database; no cut-off is given here.
# What was measured:
# [1] = Apparent permeability across basal to apical side in human Caco-2 cells at 100 uM incubated for 120 mins by UPLC-MS/MS analysis; assay type: ADME, cell-based
# Mus musculus [2] = test: Inhibition of irinotecan-triggered gut toxicity in C57BL/6J mouse bearing tumor cells assessed as decrease in IL-6 level in colon tissue administered orally treated for 14 days; assay type: functional, organism-based; conditions: dose 25-50 mg/kg/day, route po, time 14.0 day
# Cholinesterase [3] = molecular target: T1, Cholinesterase (Homo sapiens, UniProt P06276); test: Inhibition of human BuChE using BTCI as substrate incubated for 3 mins by Ellman's method
# Cholinesterase [4] = molecular target: T1, Cholinesterase; test: Inhibition of human BuChE using BTCI as substrate incubated for 33 mins by Ellman's method
# Cytochrome P450 1A2 = molecular target: T2, Cytochrome P450 1A2 (Homo sapiens, UniProt P05177); test: Inhibition of CYP1A2 in human liver microsomes using phenacetin as substrate upto 10 uM; assay type: ADME, Microsome
# T2 sequence (P05177 whole entry): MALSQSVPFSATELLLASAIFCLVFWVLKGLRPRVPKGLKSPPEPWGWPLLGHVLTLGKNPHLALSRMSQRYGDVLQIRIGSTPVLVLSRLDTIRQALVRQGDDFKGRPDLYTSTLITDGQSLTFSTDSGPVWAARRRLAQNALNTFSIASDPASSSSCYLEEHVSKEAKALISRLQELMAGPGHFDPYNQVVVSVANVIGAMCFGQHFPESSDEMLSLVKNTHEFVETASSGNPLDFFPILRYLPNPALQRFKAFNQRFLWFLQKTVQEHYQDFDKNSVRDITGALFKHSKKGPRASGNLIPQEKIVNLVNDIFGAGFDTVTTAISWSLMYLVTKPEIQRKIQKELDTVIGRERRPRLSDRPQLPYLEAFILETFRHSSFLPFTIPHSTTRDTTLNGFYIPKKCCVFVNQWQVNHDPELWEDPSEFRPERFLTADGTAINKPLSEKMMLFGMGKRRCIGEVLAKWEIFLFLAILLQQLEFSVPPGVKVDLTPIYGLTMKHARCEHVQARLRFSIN
# Mus musculus [5] = test: Inhibition of irinotecan-triggered gut toxicity in C57BL/6J mouse bearing tumor cells assessed as decrease in serum UREA level at 25 to 50 mg/kg/day, po treated for 14 days; assay type: functional, organism-based; conditions: dose 25-50 mg/kg/day, time 14.0 day
# [6] = Sub-acute toxicity in C57BL/6J mouse assessed as body weight change at 100 mg/kg/day, po treated for 14 days consecutively; assay type: organism-based; conditions: in vivo, 336 h, time 14 day
# Mus musculus [7] = test: Inhibition of irinotecan-triggered gut toxicity in C57BL/6J mouse bearing tumor cells assessed as decrease in IL-1beta level in colon tissue administered orally treated for 14 days; assay type: functional, organism-based; conditions: dose 25-50 mg/kg/day, route po, time 14.0 day
# Mus musculus [8] = test: Inhibition of irinotecan-triggered gut toxicity in C57BL/6J mouse bearing tumor cells assessed as increase in claudin-1 level in colon tissue at 25 to 50 mg/kg/day, po treated for 14 days by immunofluorescence based analysis; assay type: functional, organism-based; conditions: dose 25-50 mg/kg/day, time 14.0 day
# Cytochrome P450 2C9 = Cytochrome P450 2C9 (Homo sapiens, UniProt P11712); test: Inhibition of CYP2C9 in human liver microsomes using diclofenac as substrate upto 10 uM; assay type: ADME, Microsome
# [9] = Permeability across apical to basal side in human Caco-2 cells assessed as cumulative penetration amount at 25 uM incubated for 120 mins by UPLC-MS/MS analysis; assay type: ADME, cell-based; conditions: caco-2, 2 h
# [10] = Drug distribution in colon of C57BL/6J mouse at 100 mg/kg, po administered as single dose measured for 0.5 to 3 hrs by UHPLC-Q-Orbitrap HRMS analysis; assay type: ADME, organism-based; conditions: in vivo, time 0.5-3 hrs
# Cytochrome P450 2D6 = Cytochrome P450 2D6 (Homo sapiens, UniProt P10635); test: Inhibition of CYP2D6 in human liver microsomes using dextromethorphan as substrate upto 10 uM; assay type: ADME, Microsome
# [11] = Permeability across basal to apical side in human Caco-2 cells assessed as cumulative penetration amount at 100 uM incubated for 120 mins by UPLC-MS/MS analysis; assay type: ADME, cell-based; conditions: caco-2, 2 h
# Prothrombin = Prothrombin (Homo sapiens, UniProt P00734); test: Inhibition of human Thrombin using Z-GGRAMC as substrate preincubated for 3 mins followed by substrate addition by fluorescence based assay
# [12] = Apparent permeability across basal to apical side in human Caco-2 cells at 50 uM incubated for 120 mins by UPLC-MS/MS analysis; assay type: ADME, cell-based
# HepG2 = test: Cytotoxicity against human HepG2 cells at <20 uM; assay type: toxicity, cell-based; conditions: hepg2, 20 µM
# [13] = Chemical stability in artificial gastrointestinal fluid at 10 uM measured upto 120 mins by UPLC-MS/MS analysis; assay type: physicochemical; conditions: 2 h
# [14] = Sub-acute toxicity in C57BL/6J mouse assessed as change in mental state at 100 mg/kg/day, po treated for 14 days consecutively; assay type: organism-based; conditions: in vivo, 336 h, time 14 day
# [15] = Apparent permeability across apical to basal side in human Caco-2 cells at 50 uM incubated for 120 mins by UPLC-MS/MS analysis; assay type: ADME, cell-based
# [16] = Sub-acute toxicity in C57BL/6J mouse assessed as abnormality in liver at 100 mg/kg/day, po treated for 14 days consecutively by H and E staining based analysis; assay type: organism-based; conditions: in vivo, 336 h, time 14 day
# Homo sapiens = organism: Homo sapiens; test: Irreversible inhibition of human CES2A measured after 12 hrs by dialysis assay
# [17] = Sub-acute toxicity in C57BL/6J mouse assessed as change in ALB level at 100 mg/kg/day, po treated for 14 days consecutively; assay type: organism-based; conditions: in vivo, 336 h, time 14 day
# [18] = Sub-acute toxicity in C57BL/6J mouse assessed as change in TP level at 100 mg/kg/day, po treated for 14 days consecutively; assay type: organism-based; conditions: in vivo, 336 h, time 14 day
# [19] = Efflux ratio of apparent permeability across basal to apical side over apical to basal side in human Caco-2 cells at 100 uM incubated for 120 mins by UPLC-MS/MS analysis; assay type: ADME, cell-based
# [20] = Sub-acute toxicity in C57BL/6J mouse assessed as change in CREA level at 100 mg/kg/day, po treated for 14 days consecutively; assay type: organism-based; conditions: in vivo, 336 h, time 14 day
# [21] = Sub-acute toxicity in C57BL/6J mouse assessed as change in ALP level at 100 mg/kg/day, po treated for 14 days consecutively; assay type: organism-based; conditions: in vivo, 336 h, time 14 day
# [22] = Inhibition of human CES2A using fluorescein diacetate as substrate preincubated for 3 mins followed by substrate addition measured after 30 mins by fluorescence based assay
# [23] = Drug distribution in ileum of C57BL/6J mouse at 100 mg/kg, po administered as single dose measured for 0.5 to 3 hrs by UHPLC-Q-Orbitrap HRMS analysis; assay type: ADME, organism-based; conditions: in vivo, time 0.5-3 hrs
# Dipeptidyl peptidase 4 = Dipeptidyl peptidase 4 (Homo sapiens, UniProt P27487); test: Inhibition of human serum DPP-IV using GP-BAN as substrate preincubated for 3 mins followed by substrate addition by fluorescence based assay
# [24] = Sub-acute toxicity in C57BL/6J mouse assessed as abnormality in brain at 100 mg/kg/day, po treated for 14 days consecutively by H and E staining based analysis; assay type: organism-based; conditions: in vivo, 336 h, time 14 day
# Acetylcholinesterase = Acetylcholinesterase (Homo sapiens, UniProt P22303); test: Inhibition of human AChE using ATCI as substrate incubated for 3 mins by Ellman's method
# [25] = Inhibition of human pancreatic lipase using DDAO-ol as substrate preincubated for 3 mins followed by substrate addition by fluorescence based assay
# T1 sequence (P06276 whole entry): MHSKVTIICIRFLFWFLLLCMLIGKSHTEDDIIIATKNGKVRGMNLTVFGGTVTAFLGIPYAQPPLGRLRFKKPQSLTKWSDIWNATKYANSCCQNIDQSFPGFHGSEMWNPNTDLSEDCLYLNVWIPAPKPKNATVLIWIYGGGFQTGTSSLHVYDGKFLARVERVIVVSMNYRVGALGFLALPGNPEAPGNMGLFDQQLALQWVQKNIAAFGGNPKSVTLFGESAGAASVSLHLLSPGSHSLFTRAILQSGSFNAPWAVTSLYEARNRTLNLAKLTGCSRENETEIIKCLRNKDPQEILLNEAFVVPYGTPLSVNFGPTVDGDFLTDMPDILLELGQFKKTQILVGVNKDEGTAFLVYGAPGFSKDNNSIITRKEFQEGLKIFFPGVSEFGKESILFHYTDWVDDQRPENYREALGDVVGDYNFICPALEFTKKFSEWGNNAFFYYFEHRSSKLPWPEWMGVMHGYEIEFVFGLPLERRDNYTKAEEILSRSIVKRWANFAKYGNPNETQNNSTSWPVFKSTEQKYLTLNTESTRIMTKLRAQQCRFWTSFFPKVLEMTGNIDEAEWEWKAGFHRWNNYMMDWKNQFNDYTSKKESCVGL
# Dipeptidyl peptidase 4, sequence (P27487 whole entry): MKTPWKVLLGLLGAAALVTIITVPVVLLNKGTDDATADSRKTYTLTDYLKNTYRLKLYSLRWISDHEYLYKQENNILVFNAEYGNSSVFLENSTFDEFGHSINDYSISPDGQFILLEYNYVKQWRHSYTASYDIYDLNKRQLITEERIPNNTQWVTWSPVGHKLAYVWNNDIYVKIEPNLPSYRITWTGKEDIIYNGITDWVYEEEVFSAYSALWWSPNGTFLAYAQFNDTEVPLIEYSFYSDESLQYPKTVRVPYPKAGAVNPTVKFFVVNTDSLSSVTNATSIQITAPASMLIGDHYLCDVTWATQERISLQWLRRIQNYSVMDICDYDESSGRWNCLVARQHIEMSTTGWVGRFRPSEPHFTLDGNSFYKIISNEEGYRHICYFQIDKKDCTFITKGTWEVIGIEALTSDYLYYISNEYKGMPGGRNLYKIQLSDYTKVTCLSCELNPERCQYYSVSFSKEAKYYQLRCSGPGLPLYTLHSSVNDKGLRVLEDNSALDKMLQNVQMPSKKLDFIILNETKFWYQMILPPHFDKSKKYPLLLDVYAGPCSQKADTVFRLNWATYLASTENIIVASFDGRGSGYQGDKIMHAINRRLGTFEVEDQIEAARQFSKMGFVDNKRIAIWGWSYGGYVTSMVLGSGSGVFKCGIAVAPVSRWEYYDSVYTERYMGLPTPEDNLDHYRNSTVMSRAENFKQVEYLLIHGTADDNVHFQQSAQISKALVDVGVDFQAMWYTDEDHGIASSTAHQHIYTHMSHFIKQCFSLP
# Cytochrome P450 2D6, sequence (P10635 whole entry): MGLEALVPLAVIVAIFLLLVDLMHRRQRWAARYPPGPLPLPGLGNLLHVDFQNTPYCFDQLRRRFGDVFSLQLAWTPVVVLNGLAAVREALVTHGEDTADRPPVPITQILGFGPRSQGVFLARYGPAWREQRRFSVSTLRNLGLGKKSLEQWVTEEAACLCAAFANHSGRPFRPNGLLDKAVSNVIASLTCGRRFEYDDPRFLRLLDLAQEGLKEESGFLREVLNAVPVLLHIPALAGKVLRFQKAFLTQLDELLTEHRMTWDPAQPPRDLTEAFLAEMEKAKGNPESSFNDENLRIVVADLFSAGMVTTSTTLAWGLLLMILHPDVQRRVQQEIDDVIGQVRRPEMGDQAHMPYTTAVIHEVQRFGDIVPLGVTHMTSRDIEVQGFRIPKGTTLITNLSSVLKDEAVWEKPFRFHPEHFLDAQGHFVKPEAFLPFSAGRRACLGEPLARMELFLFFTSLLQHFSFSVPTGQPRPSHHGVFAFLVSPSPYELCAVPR
# Cytochrome P450 2C9, sequence (P11712 whole entry): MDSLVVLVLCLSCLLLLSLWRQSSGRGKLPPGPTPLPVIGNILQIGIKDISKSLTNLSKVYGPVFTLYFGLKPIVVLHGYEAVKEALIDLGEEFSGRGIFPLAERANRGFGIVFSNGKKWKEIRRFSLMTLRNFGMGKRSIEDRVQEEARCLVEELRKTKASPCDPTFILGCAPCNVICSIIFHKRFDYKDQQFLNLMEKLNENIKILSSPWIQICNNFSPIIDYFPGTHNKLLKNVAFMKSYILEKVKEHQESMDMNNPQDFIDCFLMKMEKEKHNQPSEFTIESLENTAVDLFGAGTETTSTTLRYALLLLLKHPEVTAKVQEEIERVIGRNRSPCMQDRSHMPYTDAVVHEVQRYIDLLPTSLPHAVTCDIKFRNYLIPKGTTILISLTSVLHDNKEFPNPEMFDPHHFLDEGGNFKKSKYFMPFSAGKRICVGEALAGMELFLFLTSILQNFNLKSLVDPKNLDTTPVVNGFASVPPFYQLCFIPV
# Acetylcholinesterase, sequence (P22303 whole entry): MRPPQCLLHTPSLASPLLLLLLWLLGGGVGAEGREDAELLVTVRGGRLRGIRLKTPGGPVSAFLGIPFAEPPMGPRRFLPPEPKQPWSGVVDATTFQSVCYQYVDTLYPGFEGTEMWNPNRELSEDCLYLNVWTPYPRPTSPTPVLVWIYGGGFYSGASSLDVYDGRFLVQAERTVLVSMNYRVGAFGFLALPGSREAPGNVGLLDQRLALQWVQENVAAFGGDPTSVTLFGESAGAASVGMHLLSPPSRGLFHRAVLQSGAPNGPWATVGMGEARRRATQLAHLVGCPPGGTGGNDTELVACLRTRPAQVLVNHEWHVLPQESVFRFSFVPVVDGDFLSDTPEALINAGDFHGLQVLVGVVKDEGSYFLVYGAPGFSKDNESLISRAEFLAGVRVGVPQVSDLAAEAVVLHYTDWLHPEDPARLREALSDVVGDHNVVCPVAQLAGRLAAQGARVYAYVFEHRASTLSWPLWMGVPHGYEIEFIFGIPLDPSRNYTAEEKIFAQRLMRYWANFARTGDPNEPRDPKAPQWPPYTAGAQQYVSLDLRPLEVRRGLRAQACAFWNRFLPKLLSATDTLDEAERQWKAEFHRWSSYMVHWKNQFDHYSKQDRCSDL
smiles,measurement,setting,value
CCN(C)C(=O)Oc1ccc(C(=O)N2CCC(Cc3ccccc3)CC2)cc1OC,"Papp B→A at 2 h, 100 µM",[1],7.8 ×10⁻⁶ cm/s
same,inhibition,Mus musculus [2],Active
same,IC50,Cholinesterase [3],3.06 µM
same,IC50,Cholinesterase [4],0.834 µM
same,inhibition (INH),Cytochrome P450 1A2,Not_active
same,inhibition,Mus musculus [5],Active
same,Activity,[6],Non-toxic
same,inhibition,Mus musculus [7],Active
same,inhibition,Mus musculus [8],Active
same,inhibition (INH),Cytochrome P450 2C9,Not_active
same,Activity,[9],3.17 µM
same,Drug uptake,[10],Active
same,inhibition (INH),Cytochrome P450 2D6,Not_active
same,Activity,[11],6.29 µM
same,IC50,Prothrombin,> 10 µM
same,"Papp B→A at 2 h, 50 µM",[12],10.5 ×10⁻⁶ cm/s
same,Activity,HepG2,Non-toxic
same,Stability,[13],Stable
same,Activity,[14],Non-toxic
same,"Papp A→B at 2 h, 50 µM",[15],15.6 ×10⁻⁶ cm/s
same,Activity,[16],Non-toxic
same,inhibition,Homo sapiens,Active
same,Activity,[17],Non-toxic
same,Activity,[18],Non-toxic
same,"efflux ratio at 2 h, 100 µM",[19],0.66
same,Activity,[20],Non-toxic
same,Activity,[21],Non-toxic
same,IC50,[22],0.00069 µM
same,Drug uptake,[23],Active
same,IC50,Dipeptidyl peptidase 4,> 10 µM
same,Activity,[24],Non-toxic
same,IC50,Acetylcholinesterase,> 10 µM
same,IC50,[25],> 10 µM
